Source: US4200750A, “4-Substituted imidazo [1,2-a]quinoxalines” (Westwood Pharmaceuticals Inc., priority 1977, dated 1980)
Values after ≈ are worked out from the molar mass of the structure shown. One block for each compound: values may come before it.

Tests used:
[1] = system: immunosuppressant activity; assay: Immunosuppressant activity (general statement); assay type: in vivo; details: result in words
[2] = system: T. rubrum; assay: Agar dilution antifungal assay, Trichophyton rubrum; assay type: cell-based, Trichophyton rubrum (ATCC No. 10218 and 14001); details: for MIC: Trichophyton rubrum, read-out: Parts Per Million Inhibitions, T. rubrum
Description: (§1) Various compounds of this invention display antifungal and anti-yeast activity.
(§2) In Table IX below are listed the antifungal activity of a number of compounds encompassed in the present invention. These were determined by the agar dilution method as described in Chapters 2 and 3 of Methods in Microbiology, Vol. 7B, edited by J. R. Norris and D. W. Ribbons, Academic Press, New York, 1972.

[3] = system: Rat Paw Edema; assay: Rat paw edema assay, local administration; assay type: in vivo; details: injected directly into paw, carrageenan
Description: The anti-inflammatory activity of representative compounds of this invention was determined by the rat paw edema assay both by local administration (Table XI below) and by oral dosing (Table XII below). For the oral dosing, the procedure of C. A. Winter, E. A. Risley and G. W. Nuss, Proc. Soc. Exp. Biol. Med. 111, 544 (1962) was employed with measurement taken four hours after the drug was administered. The local administration tests were carried out similarly except the irritant (carrageenan) and the test compound were injected simultaneously at time zero.
Tables XI and XII report the anti-inflammatory activity of the compounds tested as % difference in the edema or swelling as compared with the control. These Tables also give the response in many instances of more than one dose level of the same drug.

[4] = system: T. mentagrophytes; assay: Agar dilution antifungal assay, Trichophyton mentagrophytes; assay type: cell-based, Trichophyton mentagrophytes (ATCC No. 8757 and 9129)
Description: as §1, §2

[5] = system: T. ajelloi; assay: Agar dilution antifungal assay, Trichophyton ajelloi; assay type: cell-based
Description: as §1, §2

Compound: c1ccc2c(c1)ncc1nccn12 [Compound 109, imidazo[1,2-a]quinoxaline]
immunosuppressant activity [1]: lacks immunosuppressant activity

MIC [2]: 16 µg/mL (≈ 71 µM)
Compound: CCCCc1nc2ccccc2n2ccnc12 [Compound 113]

Compound: CCCCCc1nc2ccccc2n2ccnc12 [Compound 114]
% Difference from Control (edema), local administration, 10 μg [3]: -30.0%

MIC ([4]; Trichophyton mentagrophytes, read-out: Parts Per Million Inhibitions, T. mentagrophytes): 16 µg/mL (≈ 56.9 µM)
MIC [2]: 8 µg/mL (≈ 28.4 µM)
MIC ([5]; Arthroderma uncinatum, read-out: Parts Per Million Inhibitions, T. ajelloi): 16 µg/mL (≈ 56.9 µM)
Compound: CCCCCCCCc1nc2ccccc2n2ccnc12 [Compound 117]

Compound: c1ccc(-c2nc3ccccc3n3ccnc23)cc1 [Compound 131, 4-phenylimidazo[1,2-a]quinoxaline]
immunosuppressant activity [1]: only minor activity

Compound: Clc1cccc(Nc2nc3ccccc3n3ccnc23)c1 [Compound 179]
Parts Per Million Inhibitions, T. mentagrophytes [4]: 100 Parts Per Million
Parts Per Million Inhibitions, T. rubrum [2]: 100 Parts Per Million
Parts Per Million Inhibitions, T. ajelloi [5]: 100 Parts Per Million
